This is an account of results in ChEMBL document CHEMBL5052819, “Peptide targeting gip and glp-2 receptors for treating bone disorders” (2020).

Data set [1] relates to Mus musculus. The data set is described as follows: Anti-osteoporosis activity in ovariectomized BALB/c mouse at 25 nmol/kg, sc assessed as reduction in trabecular spacing. The arrangement: scale not given: the % may be the effect or the level left. It counts as functional.
The next data set deals with RAW264.7. Nature of the data set: Inhibition of RANKL-induced osteoclastogenesis in mouse RAW264.7 cells measured after 110 hrs by TRAcP staining based assay. The data set is classed as functional, cell-based. The note with it: RAW264.7, 110 h.
For data set [2], the system named is Mus musculus. The data set is described as follows: Anti-osteoporosis activity in ovariectomized BALB/c mouse at 25 to 100 nmol/kg/day, sc assessed as reduction in trabecular bone stiffness. The data set is classed as functional, organism-based. Conditions: dose 25-100 nmol/kg.
Data set [3] concerns Mus musculus. Nature of the data set: Anti-osteoporosis activity in ovariectomized BALB/c mouse at 100 nmol/kg/day, sc assessed as increase in work-to-fracture of cortical bone. The data set is classed as functional.
Data set [4] deals with Mus musculus. Nature of the data set: Anti-osteoporosis activity in ovariectomized BALB/c mouse at 100 nmol/kg, sc assessed as decrease in augmented acid phosphate content heterogeneity. The arrangement: scale not given: the % may be the effect or the level left. It counts as functional.
The subject of data set [5] is Mus musculus. The data set is described as follows: Anti-osteoporosis activity in ovariectomized BALB/c mouse at 100 nmol/kg/day, sc assessed as increase in post-yield displacement of cortical bone. The data set is classed as functional.
Data set [6] has as its system Mus musculus. The data set is described as follows: Anti-osteoporosis activity in ovariectomized BALB/c mouse at 25 to 100 nmol/kg/day, sc assessed as effect on cortical bone microarchitecture. It counts as functional, organism-based. Conditions: dose 25-100 nmol/kg.
A short description of data set [7]: Toxicity in ovariectomized BALB/c mouse at 25 nmol/kg, sc assessed as effect on morphological changes in pancreas. It counts as organism-based. The note with it: in vivo.
The test system of data set [8] is Mus musculus. The data set is described as follows: Anti-osteoporosis activity in ovariectomized BALB/c mouse at 100 nmol/kg, sc assessed as decrease in mean phosphate/amide ratio. It counts as functional. Details: scale not given: the % may be the effect or the level left.
Data set [9] can be described thus: Toxicity in ovariectomized BALB/c mouse at 25 nmol/kg, sc assessed as effect on morphological changes in liver. The data set is classed as organism-based. The note with it: in vivo.
The subject of data set [10] is Mus musculus. Nature of the data set: Anti-osteoporosis activity in ovariectomized BALB/c mouse at 100 nmol/kg/day, sc assessed as increase in ultimate displacement of cortical bone. The data set is classed as functional.
Data set [11] relates to Mus musculus. The data set is described as follows: Anti-osteoporosis activity in ovariectomized BALB/c mouse at 100 microg/kg, iv assessed as increase in trabecular number. It counts as functional. Conditions: dose 100 µg/kg.
In data set [12] the test system is Mus musculus. The data set is described as follows: Anti-osteoporosis activity in ovariectomized BALB/c mouse at 100 microg/kg, iv assessed as effect on cortical bone microarchitecture. Conditions: dose 100.0 µg/kg. The data set is classed as functional, organism-based.
The test system of data set [13] is Mus musculus. The data set is described as follows: Anti-osteoporosis activity in ovariectomized BALB/c mouse at 100 microg/kg, iv assessed as increase in trabecular bone mass. Conditions: dose 100 µg/kg. The data set is classed as functional.
Data set [14] has as its system Mus musculus. Nature of the data set: Anti-osteoporosis activity in ovariectomized BALB/c mouse at 100 microg/kg, iv assessed as increase in mineral crystallinity heterogeneity. The data set is classed as functional. Conditions: dose 100 µg/kg.
A short description of data set [15]: Toxicity in ovariectomized BALB/c mouse assessed as effect on body mass at 100 microg/kg, iv. The note with it: in vivo, 0.1 mg/kg, dose 100 µg/kg.
For data set [16], the system named is Mus musculus. Nature of the data set: Anti-osteoporosis activity in ovariectomized BALB/c mouse at 100 microg/kg, iv assessed as reduction in trabecular bone stiffness. The data set is classed as functional, organism-based. Conditions: dose 100.0 µg/kg.

pIC50: −log10 of the molar value. Activity calls are given as the source filed them. No cut-off for these calls is given here.

What is called pIC50 is the IC50 on a negative log10 scale, so that one unit is a factor of ten. Turning to `CC[C@H](C)[C@H](NC(=O)[C@H](CO)NC(=O)[C@H](Cc1ccccc1)NC(=O)[C@H](CC(=O)O)NC(=O)[C@H](CO)NC(=O)CNC(=O)[C@H](Cc1ccccc1)NC(=O)[C@H](CO)NC(=O)CNC(=O)[C@H](CCC(=O)O)NC(=O)CNC(=O)[C@@H](N)Cc1cnc[nH]1)C(=O)N[C@@H](C)C(=O)N[C@@H](CC(C)C)C(=O)N[C@@H](CC(=O)O)C(=O)N[C@@H](CCCCN)C(=O)N[C@@H](CC(C)C)C(=O)N[C@@H](C)C(=O)N[C@@H](C)C(=O)N[C@@H](CCCNC(=N)N)C(=O)N[C@@H](CC(=O)O)C(=O)N[C@@H](Cc1ccccc1)C(=O)N[C@H](C(=O)N[C@@H](CC(N)=O)C(=O)N[C@@H](Cc1c[nH]c2ccccc12)C(=O)N[C@@H](CC(C)C)C(=O)N[C@@H](CC(C)C)C(=O)N[C@@H](CCC(N)=O)C(=O)N[C@H](C(=O)N[C@@H](CCCCN)C(N)=O)[C@@H](C)O)C(C)C`, the Activity in the data set with Mus musculus [1] is 17%; with Mus musculus [3], 33%; with Mus musculus [4] it was 18%; in the data set with Mus musculus [5], 62%; in data set [7] it was “Non-Toxic”; in the data set on Mus musculus [8] it was 5%. Moreover, the Activity entry in data set [9] is “Non-Toxic”; in the data set with Mus musculus [10], 33%. In the data set on RAW264.7, this molecule had a pIC50 of 10.44. Also, the outcome in the data set with Mus musculus [2] was Active. For the same molecule, in the data set on Mus musculus [6], the result was inactive.
For the molecule `O.O=P(O)(O)C(O)(Cn1ccnc1)P(=O)(O)O` [ZOLEDRONIC ACID], the Activity in the data set with Mus musculus [11] was 12%; in the data set on Mus musculus [13], 15%; in the data set with Mus musculus [14], 21%; in data set [15], “Non-Toxic”. In the data set on Mus musculus [12], the result was inactive. In addition, in the data set on Mus musculus [16], the result was Active.
